For experiment [1], the target named is T1, Lymphokine-activated killer T-cell-originated protein kinase (Homo sapiens) (UniProt Q96KB5).
T1 sequence (whole entry): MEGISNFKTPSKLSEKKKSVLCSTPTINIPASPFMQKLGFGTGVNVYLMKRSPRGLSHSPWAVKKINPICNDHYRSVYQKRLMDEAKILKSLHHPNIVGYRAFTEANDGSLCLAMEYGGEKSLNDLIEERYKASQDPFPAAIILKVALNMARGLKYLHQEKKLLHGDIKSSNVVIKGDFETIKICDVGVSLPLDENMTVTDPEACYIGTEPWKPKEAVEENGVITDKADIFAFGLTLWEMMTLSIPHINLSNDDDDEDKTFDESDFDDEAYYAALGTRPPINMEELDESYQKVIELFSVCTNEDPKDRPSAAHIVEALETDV
Nature of the experiment: Inhibition of human PBK/TOPK using myelin basic protein as substrate at 1 uM in presence of 32P-ATP by Hotspot assay relative to control; values are per cent of control.

The target in experiment [2] is T2, Ephrin type-A receptor 3 (Homo sapiens) (UniProt P29320).
T2 sequence (whole entry): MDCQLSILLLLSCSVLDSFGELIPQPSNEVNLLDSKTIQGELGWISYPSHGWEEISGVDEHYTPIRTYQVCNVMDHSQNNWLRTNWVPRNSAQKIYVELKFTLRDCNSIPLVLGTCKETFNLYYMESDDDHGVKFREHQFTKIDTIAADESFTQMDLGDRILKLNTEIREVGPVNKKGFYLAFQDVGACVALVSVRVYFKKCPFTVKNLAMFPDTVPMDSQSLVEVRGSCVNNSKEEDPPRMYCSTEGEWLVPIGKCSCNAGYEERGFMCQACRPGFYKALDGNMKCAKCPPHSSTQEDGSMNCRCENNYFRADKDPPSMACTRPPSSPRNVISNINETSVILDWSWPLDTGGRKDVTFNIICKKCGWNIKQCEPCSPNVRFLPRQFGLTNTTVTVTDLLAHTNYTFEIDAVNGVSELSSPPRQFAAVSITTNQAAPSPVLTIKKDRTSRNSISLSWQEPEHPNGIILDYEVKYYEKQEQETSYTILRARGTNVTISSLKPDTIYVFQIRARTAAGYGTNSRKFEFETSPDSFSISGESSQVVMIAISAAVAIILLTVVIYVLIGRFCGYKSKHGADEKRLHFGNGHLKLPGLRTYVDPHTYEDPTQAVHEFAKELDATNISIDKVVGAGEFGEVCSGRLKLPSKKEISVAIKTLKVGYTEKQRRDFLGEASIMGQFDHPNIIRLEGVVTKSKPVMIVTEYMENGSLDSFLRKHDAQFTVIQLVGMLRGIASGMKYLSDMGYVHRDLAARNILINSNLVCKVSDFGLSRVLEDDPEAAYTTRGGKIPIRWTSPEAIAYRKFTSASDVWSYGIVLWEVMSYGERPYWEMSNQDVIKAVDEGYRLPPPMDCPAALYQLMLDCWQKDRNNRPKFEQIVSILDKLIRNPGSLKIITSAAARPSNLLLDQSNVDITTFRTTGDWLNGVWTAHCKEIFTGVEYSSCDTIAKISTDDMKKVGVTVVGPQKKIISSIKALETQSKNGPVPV
Nature of the experiment: Inhibition of human EPHA3 using poly[Glu:Tyr] (4:1) as substrate at 1 uM in presence of 32P-ATP by Hotspot assay relative to control; values are per cent of control.

In experiment [3] the target is T3, Ephrin type-B receptor 4 (Homo sapiens) (UniProt P54760).
T3 sequence (whole entry): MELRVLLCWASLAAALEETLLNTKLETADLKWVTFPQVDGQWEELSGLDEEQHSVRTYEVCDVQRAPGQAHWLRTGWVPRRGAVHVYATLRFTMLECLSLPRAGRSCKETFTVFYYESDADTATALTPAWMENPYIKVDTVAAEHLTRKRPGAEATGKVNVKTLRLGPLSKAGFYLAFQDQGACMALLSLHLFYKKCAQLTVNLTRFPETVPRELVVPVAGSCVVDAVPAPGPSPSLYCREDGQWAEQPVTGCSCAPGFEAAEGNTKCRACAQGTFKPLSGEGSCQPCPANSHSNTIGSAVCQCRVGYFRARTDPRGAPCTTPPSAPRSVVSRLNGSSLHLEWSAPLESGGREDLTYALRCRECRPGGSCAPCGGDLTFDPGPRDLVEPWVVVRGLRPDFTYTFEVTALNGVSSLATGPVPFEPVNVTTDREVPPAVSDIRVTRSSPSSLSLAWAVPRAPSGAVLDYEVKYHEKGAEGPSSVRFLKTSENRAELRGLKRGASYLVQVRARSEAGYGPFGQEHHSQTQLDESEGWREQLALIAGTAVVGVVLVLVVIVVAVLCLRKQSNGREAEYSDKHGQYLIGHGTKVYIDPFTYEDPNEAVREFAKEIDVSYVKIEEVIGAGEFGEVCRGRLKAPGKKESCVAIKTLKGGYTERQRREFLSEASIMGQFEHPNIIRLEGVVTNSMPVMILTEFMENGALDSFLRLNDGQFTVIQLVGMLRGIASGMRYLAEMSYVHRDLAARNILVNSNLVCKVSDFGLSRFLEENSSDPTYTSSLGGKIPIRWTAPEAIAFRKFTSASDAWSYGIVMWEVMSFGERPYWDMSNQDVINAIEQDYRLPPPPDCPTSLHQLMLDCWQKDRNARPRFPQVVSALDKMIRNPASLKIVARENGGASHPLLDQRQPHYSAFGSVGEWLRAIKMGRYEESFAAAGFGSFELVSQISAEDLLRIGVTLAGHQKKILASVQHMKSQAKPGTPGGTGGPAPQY
The experiment can be described thus: Inhibition of human EPHB4 using poly[Glu:Tyr] (4:1) as substrate at 1 uM in presence of 32P-ATP by Hotspot assay relative to control; values are per cent of control.

Experiment [4] addresses CDK6/cyclin D1 (Homo sapiens) (UniProt P24385+Q00534). The experiment can be described thus: Inhibition of human CDK6/cyclin D1 using RB Protein as substrate at 1 uM in presence of 32P-ATP by Hotspot assay relative to control; values are per cent of control.
The next experiment is filed under the species Homo sapiens. The experiment can be described thus: Inhibition of human PKA using LCGRTGRRNSI as substrate at 1 uM in presence of 32P-ATP by Hotspot assay relative to control; values are per cent of control.

This is an account of results in ChEMBL document CHEMBL5649166, “RIP3 induces apoptosis independent of pronecrotic kinase activity” (Mol Cell, 2014).

Turning to `CNC(=O)c1ccc2c(c1)ncn2-c1ccc(CC(=O)OC(C)(C)C)cc1`, the residual activity in experiment [1] was determined as 102%; in experiment [2] it was 82.7%; in experiment [3] it was 89.7%; in experiment [4] it was 96.6%; in the experiment filed under Homo sapiens it was 101%.
Taken in the same sequence, the figures for `Cc1cc(-c2cnc(N)c3c(-c4ccc5scnc5c4)csc23)n(C)n1` were 100%, 80%, 56.3%, 98.2% and 94.9%.
Taken in the same sequence, the figures for `CC(C)S(=O)(=O)c1ccc2nccc(Nc3ccc4scnc4c3)c2c1` were 105%, 92%, 60.2%, 101% and 97.7%.
